Laboratory results from article PMC8041433 (Environmental Health Perspectives, 2021).
Several values for one entry are separate records, joined by “and”; a condition that tells them apart may be missing. Identical values can stand only once. Counter-ions that a name gives are not always drawn. Like-named read-outs stand apart in the source and are kept apart here.

How the values were obtained:
[1] = molecular target: T1, recombinant human AChE (Homo sapiens, UniProt P22303); assay: biochemical
[2] = molecular target: T1, recombinant human AChE
[3] = molecular target: AChE in SH-SY5Y cells (Homo sapiens, UniProt P22303); assay: cell-based
Chain of AChE in SH-SY5Y cells (P22303 32-614): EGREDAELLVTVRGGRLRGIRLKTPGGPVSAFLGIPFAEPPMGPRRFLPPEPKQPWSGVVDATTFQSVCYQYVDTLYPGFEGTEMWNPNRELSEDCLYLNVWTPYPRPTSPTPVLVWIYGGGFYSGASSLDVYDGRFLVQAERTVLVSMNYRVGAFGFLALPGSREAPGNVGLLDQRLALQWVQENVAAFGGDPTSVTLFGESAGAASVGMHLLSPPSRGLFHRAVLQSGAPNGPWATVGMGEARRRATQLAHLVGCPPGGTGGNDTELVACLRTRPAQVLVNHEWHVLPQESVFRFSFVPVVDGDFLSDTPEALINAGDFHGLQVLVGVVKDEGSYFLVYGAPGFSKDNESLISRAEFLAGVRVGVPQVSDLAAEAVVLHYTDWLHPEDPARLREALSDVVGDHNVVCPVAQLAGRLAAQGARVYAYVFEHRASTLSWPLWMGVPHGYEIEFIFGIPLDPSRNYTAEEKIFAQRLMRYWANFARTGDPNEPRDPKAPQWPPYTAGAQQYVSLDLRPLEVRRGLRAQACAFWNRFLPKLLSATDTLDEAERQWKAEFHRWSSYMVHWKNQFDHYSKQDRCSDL

T1 sequence (P22303 32-614): as above

Structure (SMILES)	CC-v2 (curve classes) [1]	IC50 ([1]; IC50 (uM))	CC-v2 (curve classes) [2]	Efficacy [2]	CC-v2 (curve classes) [3]	IC50 ([3]; IC50 (uM))	Efficacy [1]	IC50 ([1]; read-out: IC50)	IC50 ([3]; read-out: IC50)	IC50 [2]	AChE inhibition (result in words) [1]
CC(C)Nc1nc(Cl)nc(NC(C)C)n1 [Propazine]	-2.2 and 4	71 µM	4	0	-2.1 and 4	31.7 µM and 25.2 µM and 28.3 µM					
COc1nn(CSP(=S)(OC)OC)c(=O)s1 [Methidathion]	4		4			63.3 µM and 79.6 µM and 71 µM and 56.4 µM and 39.9 µM and 35.6 µM and 44.8 µM and 50.2 µM	0				
Nc1c(/N=N/c2ccc(-c3ccc(/N=N/c4cc(S(=O)(=O)O)c5ccccc5c4N)cc3)cc2)cc(S(=O)(=O)O)c2ccccc12 [C.I. Direct Red 28]	-1.2	10 µM	4	13.368		79.6 µM and 71 µM and 89.4 µM	-36.697				
CCCCCCCCCCCCc1ccc(S(=O)(=O)O)cc1 [Dodecylbenzenesulfonic acid]	-2.1 and -1.1		4					63.3 µM and 56.4 µM and 39.9 µM	79.6 µM and 89.4 µM and 71 µM		
COP(=O)(OC)O/C(C)=C/C(=O)N(C)C [Dicrotophos]	-2.2	63.7 µM	4	0	-2.1	40.2 µM and 31.9 µM	-67.448				
Cc1nc2ccccn2c(=O)c1CCN1CCC(C(=O)c2ccc(F)cc2)CC1 [Pirenperone]	-2.4	38.9 µM	4	0	-2.1	17.4 µM and 24.5 µM	-31.06				
CN(C)C(=S)SC(=S)N(C)C [Tetramethylthiuram monosulfide]	4		4			31.7 µM and 72.8 µM and 63.3 µM and 56.4 µM					
CNC(=O)O/N=C/C(C)(C)S(C)(=O)=O [Aldoxycarb]	-1.1 and -2.1				-2.1						
CCCCOc1ccc(C(=O)CCN2CCCCC2)cc1 [Dyclonine hydrochloride]	-2.2	27.5 µM	4	0	-2.1	12.3 µM and 13.8 µM	-57.155				
NC(=O)N=NC(N)=O [Azodicarbonamide]		63.3 µM and 71.2 µM	4	0		71 µM and 63.5 µM and 71.2 µM and 79.6 µM and 89.6 µM					
COc1cc(N)c(Cl)cc1C(=O)NC1CN2CCC1CC2.Cl (stereo not drawn) [Zacopride hydrochloride]	4		4	0	-2.2		0				
CCOP(=O)(OCC)OC(=CCl)c1ccc(Cl)cc1Cl [Chlorfenvinphos]	-1.1		-1.1	-96.159	-1.1		-95.584				
O=S(=O)([O-])SSS(=O)(=O)[O-].[K+].[K+] [Potassium tetrathionate]	-2.2		-2.1	-82.524	-2.1		-73.38	71 µM	71 µM and 79.6 µM	71 µM	
CC(C)=CCN1CC[C@@]2(C)c3cc(O)ccc3C[C@@H]1[C@@H]2C.O=C(O)CCC(=O)O [(-)-Pentazocine succinate, reference compound]	-2.4		4	0	-2.1				31.2 µM and 35.1 µM and 34.8 µM and 24.7 µM and 31 µM		
Cc1ccc(CCn2c3c(c4cc(Cl)ccc42)CN(C)CC3)cn1 [Dorastine]	-2.4	38.9 µM	4	-6.925		34.7 µM and 30.9 µM	-32.475				
CNC(=C[N+](=O)[O-])NCCSCc1ccc(CN(C)C)o1 [Ranitidine, reference compound]					-1.1						

Structure (SMILES)	CC-v2 (curve classes) [1]	IC50 ([1]; IC50 (uM))	CC-v2 (curve classes) [2]	Efficacy [2]	CC-v2 (curve classes) [3]	IC50 ([3]; IC50 (uM))	Efficacy [1]	IC50 ([1]; read-out: IC50)	IC50 ([3]; read-out: IC50)	IC50 [2]	AChE inhibition (result in words) [1]
CCOP(=S)(OCC)Oc1cc(C)nc(N(CC)CC)n1 [Pirimiphos-ethyl]	4		4	-16.211			-15.947				did not show effects
C=CCN1CC[C@]23CCCC[C@H]2[C@H]1Cc1ccc(O)cc13 [Levallorphan]	4		4	0	-2.1		-27.829				
COCCCOc1ccnc(C[S+]([O-])c2nc3ccccc3[nH]2)c1C (stereo not drawn) [Rabeprazole sodium]	4		1.1	92.667	-2.1 and -2.2	63.1 µM and 70.7 µM	-15.052				
COP(=S)(OC)SCn1nnc2ccccc2c1=O [Azinphos-methyl]			4		-2.1 and -1.1						
CCOP(=O)(OCC)Oc1ccc([N+](=O)[O-])cc1 [Paraoxon]	-1.1		-1.1		-1.1						
Cc1nccn1CC1CCc2c(c3ccccc3n2C)C1=O (stereo not drawn) [Ondansetron]	4		4	0		30.9 µM and 34.7 µM and 38.9 µM	-23.749				
CC[n+]1c(-c2ccccc2)c2cc(N)ccc2c2ccc(N)cc21 [Ethidium bromide]	-2.2	30.9 µM and 79.3 µM	4		-2.1	19.5 µM and 31.6 µM and 17.4 µM					
CCCN(CCc1cccs1)[C@H]1CCc2c(O)cccc2C1 [Rotigotine]	-2.2	34.7 µM	4	0	-2.1	15.5 µM and 13.8 µM	-40.728				
CN1CCCC(n2nc(Cc3ccc(Cl)cc3)c3ccccc3c2=O)CC1 (stereo not drawn) [Azelastine hydrochloride]	-2.2	27.5 µM	4	0	-2.1	17.4 µM and 15.5 µM	-73.562				
Nc1c(NC/C=C\COc2cc(CN3CCCCC3)ccn2)c(=O)c1=O [Pibutidine]	-2.2	15.1 µM	4	0	-2.1	13.5 µM and 15.1 µM	-32.846				
CC1(C)Cc2cccc(O)c2O1 [2,3-Dihydro-2,2-dimethyl-7-benzofuranol, reference compound]											inactive
COP(N)(=O)SC (stereo not drawn) [Methamidophos]	-2.1				-2.1						
COc1cc2nc(N3CCN(C(=O)C4COc5ccccc5O4)CC3)nc(N)c2cc1OC (stereo not drawn) [Doxazosin mesylate]	-2.2		4	0			-37.943				
CCOP(=S)(OCC)Oc1cc(Cl)c(Br)cc1Cl [Bromophos-ethyl]	-3		-1.1	-91.453			-50.884				
CCOC(=O)CC(SP(=S)(OC)OC)C(=O)OCC (stereo not drawn) [malathion]											not identified to inhibit AChE
